US7105502B2, “Nitric oxide-releasing imidate and thioimidate diazeniumdiolates” (The United States of America as represented by the …, priority 2001, dated 2006)

Tests used:
[1] = Detection of NO released in solution, headspace swept with argon into a chemiluminescence detector; assay type: physicochemical
Description: The nitrites and all solvents were purchased from Aldrich Chemical Company (Milwaukee, Wis.). Nitric oxide was obtained form Matheson Gas Products (Montgomeryville, Pa.). The ^1H NMR and ^13C NMR spectra were recorded in D2O (^1H at 300 MHz; ^13C at 75 MHz). Ultraviolet spectra (10 mM NaOH unless otherwise specified) and kinetic information were obtained on a Hewlett Packard 8452A UV-visible spectrophotometer with a thermostated cell holder. Infrared data was recorded on a Perkin-Elmer 1430 infrared spectrometer. Nitric oxide was measured with a Thermal Energy Analyzer model 502A (Thermedics, Inc., Woburn, Mass.). Melting points are uncorrected. Elemental analyses were performed by Atlantic Microlab, Inc. (Norcross, Ga.).
(§1) For the detection of NO, selected compounds from the examples were dissolved in either pH 7.4 buffer or 10% H2SO4, and the headspace was swept with argon into a chemiluminescence detector. The detection of nitrous oxide (N2O), formed from the dimerization and dehydration of HNO, was done by gas chromatography in both pH 7.4 buffer and 0.1 M HCl.

[2] = Detection of nitrous oxide (N2O) by gas chromatography; assay type: physicochemical; settings: acid (0.1 M HCl)
Description: as §1

Substance	NO (mole gas/mole cmpd) ([1]; acid (10% H2SO4))	NO (mole gas/mole cmpd) ([1]; pH 7.4 buffer)	N2O (mole gas/mole cmpd) [2] [mole gas/mole cmpd]
1-naphthyl diazeniumdiolate amide [Example 9]	0.02	0.16	
benzyl diazeniumdiolate methoxy imidate [Example 2]	0.46	0.36	1.52
